{"source": "paper PMC4259414", "about": "“HS-133, a novel fluorescent phosphatidylinositol 3-kinase inhibitor as a potential imaging and anticancer agent for targeted therapy” (Oncotarget, 2014)", "system": "SkBr3 cells", "experiment": "cell cycle analysis by PI staining and flow cytometry", "format": "cell-based, human", "settings": "SkBr3, 1, 10, 50 μM, 24 h", "method": "To examine the relationship between the growth inhibitory effect of HS-133 and cell cycle progression, we analyzed cell cycle distribution of SkBr3 cells by HS-133 using a flow cytometry. The SkBr3 cells were treated for 24 h with various concentrations of HS-133 (1, 10, 50 μM) and collected and stained with PI and then analyzed by FACS. […] The up-regulation of p27, cyclin dependent kinase (CDK) inhibitor, is related to G0/G1 cell cycle arrest and contributes to the down-regulation of cyclin D1 [31]. Thus, we evaluated the effect of HS-133 on the protein expressions of p27 and cyclin D1. HS-133 increased the expression of p27 while decreasing cyclin D1 expression (Fig. 4C).\nThe SkBr3 cells were plated in 100 mm-diameter culture dishes. On the following day, the cells were treated with various concentrations of HS-133 or 0.1% DMSO for 24 h. The floating and adherent cells were collected and fixed in cold 70% ethanol at 4°C overnight. […] The events were evaluated for each sample and the cell cycle distribution was analyzed using Cell Quest software (Becton Dickinson). The results were presented as the number of cells versus the amount of DNA, as indicated by the intensity of a fluorescence signal. […]"}
{"compound": "CC(=O)Nc1ccc(-c2nc3c(c(=O)n(C)c(=O)n3C)n2-c2cccc(F)c2)cc1", "note": "[HS-133, N-(4-(7-(3-Fluorophenyl)-1,3-dimethyl-2,6-dioxo-2,3,6,7-tetrahydro-1H-purin-8-yl)phenyl) acetamide]", "values": [{"measurement": "cell cycle distribution", "result": "increased the number of cells in the G0/G1 phase"}]}
